Source: US20250215039A1, “NUCLEOSIDES FOR TREATING CANCER” (PRIMEFOUR THERAPEUTICS, INC., priority 2022, published 2025)
pIC50: −log10 of the molar value. Like-named read-outs stand apart in the source and are kept apart here.

System: cancer cell lines
Assay: Cancer cell proliferation activity (CellTiterGlo, 72 h)
Format: cell-based
Conditions: 72 h, 72 h, read-out: IC50
In short: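 Readout is CellTiterGlo luminescence after 72 h compound exposure (0.1% DMSO final), started one day post-seeding, at 37 °C.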

pIC50 (5637 cell line (bladder)): 5.54
pIC50 (CLS439 cell line (bladder)): < 4.30
pIC50 (HS729 cell line (muscle)): < 4.30
pIC50 (HSS78T cell line): < 4.30
pIC50 (JAR cell line (placenta)): < 4.30
pIC50 (SKMELS cell line): < 4.30
pIC50 (Homo sapiens, 22Rv1, 72 h, 22RV1 cell line (prostate)): 5.82
pIC50 (Homo sapiens, 786-0, 72 h, 786O cell line (kidney)): < 4.30
pIC50 (Homo sapiens, A204, 72 h, A204 cell line (muscle)): 5.28
pIC50 (Homo sapiens, A549, 72 h, A549 cell line): 5.60
pIC50 (Homo sapiens, A673, 72 h, A673 cell line (bone)): 5.27
pIC50 (Homo sapiens, A2780, 72 h, A2780 cell line (ovary)): < 4.30
pIC50 (Homo sapiens, A-375, 72 h, A375 cell line (skin)): 5.20
pIC50 (Homo sapiens, A-431, 72 h, A431 cell line (skin)): 6.47
pIC50 (Homo sapiens, ACHN, ACHN cell line (kidney)): 5.82
pIC50 (Homo sapiens, ASPC1, 72 h, ASPC1 cell line (pancreas)): 6.24
pIC50 (Homo sapiens, BT-20, 72 h, BT20 cell line (breast)): < 4.30
pIC50 (Homo sapiens, BXPC-3, 72 h, BXPC3 cell line (pancreas)): 7.10
pIC50 (Homo sapiens, C-33-A, C33A cell line (cervical)): 5.41
pIC50 (Homo sapiens, CAKI-1, 72 h, CAKI1 cell line (kidney)): < 4.30
pIC50 (Homo sapiens, COLO 205, 72 h, COLO205 cell line (colon)): 5.74
pIC50 (Homo sapiens, COLO-678, 72 h, COLO678 cell line (colon)): < 4.30
pIC50 (Homo sapiens, Ca-Ski, CASKI cell line (cervical)): 5.15
pIC50 (Homo sapiens, Caco-2, 72 h, CACO2 cell line (colon)): < 4.30
pIC50 (Homo sapiens, Calu-6, 72 h, CALU6 cell line (lung)): 5.33
pIC50 (Homo sapiens, DLD-1, 72 h, DLD1 cell line (colon)): < 4.30
pIC50 (Homo sapiens, DU-145, 72 h, DU145 cell line (prostate)): 5.50
pIC50 (Homo sapiens, EFO-21, 72 h, EFO21 cell line (ovary)): 4.77
pIC50 (Homo sapiens, EJ-28, 72 h, EJ28 cell line (bladder)): 5.27
pIC50 (Homo sapiens, Granta-519, 72 h, GRANTA-519 cell line (hematological)): 5.48
pIC50 (Homo sapiens, HCT-15, 72 h, HCT15 cell line (colon)): < 4.30
pIC50 (Homo sapiens, HCT-116, 72 h, HCT116 cell line (colon)): < 4.30
pIC50 (Homo sapiens, HEK293, 72 h, HEK293 cell line (kidney)): < 4.30
pIC50 (Homo sapiens, HL-60, 72 h, HL-60 cell line (hematological)): < 4.30
pIC50 (Homo sapiens, HT-29, 72 h, HT29 cell line (colon)): 5.55
pIC50 (Homo sapiens, HT-1080, 72 h, HT1080 cell line (connective tissue)): < 4.30
pIC50 (Homo sapiens, HeLa, HELA cell line (cervical)): < 4.30
pIC50 (Homo sapiens, HepG2, 72 h, HEPG2 cell line (liver)): 5.47
pIC50 (Homo sapiens, IGROV-1, 72 h, IGROV1 cell line (ovary)): < 4.30
pIC50 (Homo sapiens, IMR-90, 72 h, IMR.90 cell line): < 4.30
pIC50 (Homo sapiens, J82, 72 h, J82 cell line (bladder)): 5.88
pIC50 (Homo sapiens, JEG-3, 72 h, JEG3 cell line (placenta)): 5.38
pIC50 (Homo sapiens, JIMT-1, 72 h, JIMT1 cell line (breast)): < 4.30
pIC50 (Homo sapiens, K562, 72 h, K-562 cell line (hematological)): < 4.30
pIC50 (Homo sapiens, Kasumi 1, 72 h, KASUMI-1 cell line (hematological)): < 4.30
pIC50 (Homo sapiens, L-363, 72 h, L-363 cell line (hematological)): 5.25
pIC50 (Homo sapiens, LoVo, LOVO cell line (colon)): 5.71
pIC50 (Homo sapiens, MCF7, 72 h, MCF7 cell line (breast)): 5.98
pIC50 (Homo sapiens, MDA-MB-231, 72 h, MDAMB231 cell line (breast)): < 4.30
pIC50 (Homo sapiens, MDA-MB-435, 72 h, MDAMB435 cell line (skin)): < 4.30
pIC50 (Homo sapiens, MDA-MB-436, 72 h, MDAMB436 cell line (breast)): 5.84
pIC50 (Homo sapiens, MDA-MB-468, 72 h, MDAMB468 cell line (breast)): < 4.30
pIC50 (Homo sapiens, MG-63, 72 h, MG63 cell line (bone)): 5.33
pIC50 (Homo sapiens, MHH-ES-1, 72 h, MHHES1 cell line (bone)): < 4.30
pIC50 (Homo sapiens, MIA PaCa-2, 72 h, MIAPACA2 cell line (pancreas)): 5.19
pIC50 (Homo sapiens, MINO, MINO cell line (hematological)): 5.64
pIC50 (Homo sapiens, MV4-11, 72 h, MV4-11 cell line (hematological)): 6.10
pIC50 (Homo sapiens, NCI-H23, 72 h, NCI-H23 cell line (lung)): 5.31
pIC50 (Homo sapiens, NCI-H82, 72 h, NCIH82 cell line (lung)): < 4.30
pIC50 (Homo sapiens, NCI-H292, 72 h, NCIH292 cell line (lung)): < 4.30
pIC50 (Homo sapiens, NCI-H460, 72 h, NCIH460 cell line (lung)): 5.64
pIC50 (Homo sapiens, OVCAR-3, 72 h, OVCAR3 cell line (ovary)): < 4.30
pIC50 (Homo sapiens, OVCAR-4, 72 h, OVCAR4 cell line (ovary)): < 4.30
pIC50 (Homo sapiens, PANC-1, 72 h, PANC1 cell line (pancreas)): < 4.30
pIC50 (Homo sapiens, PC-3, 72 h, PC3 cell line (prostate)): < 4.30
pIC50 (Homo sapiens, PLC-PRF-5, 72 h, PLCPRF5 cell line (liver)): 5.42
pIC50 (Homo sapiens, Panc1005, 72 h, PANC1005 cell line (pancreas)): < 4.30
pIC50 (Homo sapiens, RD, RD cell line (muscle)): < 4.30
pIC50 (Homo sapiens, Ramos, RAMOS cell line (hematological)): < 4.30
pIC50 (Homo sapiens, SAOS-2, 72 h, SAOS2 cell line (bone)): 5.18
pIC50 (Homo sapiens, SF-268, 72 h, SF268 cell line (brain)): 5.40
pIC50 (Homo sapiens, SF-295, 72 h, SF295 cell line (brain)): 5.44
pIC50 (Homo sapiens, SK-BR-3, 72 h, SKBR3 cell line (breast)): 6.66
pIC50 (Homo sapiens, SK-HEP1, 72 h, SKHEP1 cell line (liver)): < 4.30
pIC50 (Homo sapiens, SK-LMS-1, 72 h, SKLMS1 cell line (uterus)): 5.45
pIC50 (Homo sapiens, SK-MEL-28, 72 h, SKMEL28 cell line (skin)): < 4.30
pIC50 (Homo sapiens, SK-N-AS, SKNAS cell line (brain)): < 4.30
pIC50 (Homo sapiens, SK-N-SH, SKNSH cell line (brain)): < 4.30
pIC50 (Homo sapiens, SK-OV-3, 72 h, SKOV3 cell line (ovary)): 5.50
pIC50 (Homo sapiens, SNB-75, 72 h, SNB75 cell line (brain)): < 4.30
pIC50 (Homo sapiens, SU-DHL10, 72 h, SU-DHL-10 cell line (hematological)): < 4.30
pIC50 (Homo sapiens, SU-DHL-6, 72 h, SU-DHL-6 cell line (hematological)): < 4.30
pIC50 (Homo sapiens, SW-620, 72 h, SW620 cell line (colon)): 5.77
pIC50 (Homo sapiens, T-24, 72 h, T24 cell line (bladder)): 5.28
pIC50 (Homo sapiens, TE-671, 72 h, TE671 cell line (muscle)): < 4.30
pIC50 (Homo sapiens, THP-1, 72 h, THP-1 cell line (hematological)): 5.25
pIC50 (Homo sapiens, U2OS, U2OS cell line (bone)): < 4.30
pIC50 (Homo sapiens, U-87 MG, U87MG cell line (brain)): < 4.30
pIC50 (Homo sapiens, UMUC3, 72 h, UMUC3 cell line (bladder)): 5.11
pIC50 (Homo sapiens, UO-31, 72 h, UO31 cell line (kidney)): < 4.30
pIC50 (Homo sapiens, WSU-NHL, WSU-NHL cell line (hematological)): 5.25
pIC50 (MT-3, 72 h, MT3 cell line (breast)): 5.50
pIC50 (NCI-H358M, NCIH358M cell line (lung)): 5.04
pIC50 (PBMC, PBMC (hematological)): < 4.30
pIC50 (RD-ES, RDES cell line (bone)): 5.46
SMILES: O=c1[nH]c(=O)n([C@H]2C[C@H](O)[C@](CO)(CF)O2)cc1F [Cpd. No. 112, 5-fluoro-1-((2R,4S,5R)-5-(fluoromethyl)-4-hydroxy-5-(hydroxymethyl)tetrahydrofuran-2-yl)pyrimidine-2,4(1H,3H)-dione]
